# Entries after “also recorded” stand apart in the source; their conditions may differ. Read-outs that look alike come from different tables or passages of the source.
# Experiments:
# KLF5 protein = KLF5 protein levels by Western blot in colon cancer cell lines; type: cell-based
# Text: The chemical structure of this compound is described using Formula (I) in which R^1=(E)-2-(3-chlorophenyl)ethenyl, R^2═H, R^3=4-tetrahydro-2H-thiopyran 1,1-dioxide, R^4=Me, X═NH, Y=absent).
# DLD-1 cell line = experiment: DLD-1 cell viability; type: cell-based; details: for EC50: cell viability, footnote calls it IC50 cell viability
# HT29 (colon) = experiment: Tumor cell line potency, HT29; type: cell-based
# SW-620 (colon) = experiment: Tumor cell line potency, SW-620; type: cell-based
# HCT-116 (colon) = experiment: Tumor cell line potency, HCT-116; type: cell-based
# [1] = system: colon cancer cell line KM12; experiment: NCI60 cytotoxicity, KM12; type: cell-based; details: KM12, high KLF5 mRNA level
# Text: (§1) Moreover, cytotoxicity in general trends with KLF5 levels in the tumor types. […] Only the colon cancer cell line KM12, the ovarian cancer line IGROV1, and the non-small cell lung cancer line NCI-H322M are the NCI60 cell lines high with respect to KLF5 mRNA levels that are ML264-insensitive.
# [2] = system: ovarian cancer line IGROV1; experiment: NCI60 cytotoxicity, IGROV1; type: cell-based; details: IGROV1, high KLF5 mRNA level
# Text: as §1
# [3] = system: non-small cell lung cancer line NCI-H322M; experiment: NCI60 cytotoxicity, NCI-H322M; type: cell-based; details: high KLF5 mRNA level
# Text: as §1
# 47 kinases = experiment: Off-target activity vs. 47 kinases; type: biochemical
# [4] = system: 67 protein targets of therapeutic and/or toxicological interest (GPCRs, ion channels, enzymes, etc.); experiment: Off-target activity vs. 67 protein targets
# [5] = Solubility measured at Scripps; type: physicochemical; details: aqueous buffer
# Stability in PBS = type: physicochemical; details: read-out: Stability (t1/2) in PBS
# [6] = Michael acceptor test, incubation with GSH, LCMS; type: physicochemical; details: by LCMS after incubation with 100 μM GSH
# human KLF5 promoter = experiment: KLF5 promoter luciferase assay in DLD-1/pGL4.18KLF5p cell line; type: cell-based; details: measuring luciferase activity
# [7] = Homo sapiens, DLD-1, DlD-1 4.9 cell line
Structure (SMILES),IC50 (human KLF5 promoter; [7]) [µM],further results
CN(C(=O)CNC(=O)/C=C/c1cccc([N+](=O)[O-])c1)C1CCS(=O)(=O)C1 (stereo not shown) [CID46931037],,effect on KLF5 protein levels (KLF5 protein): lesser effects on KLF5 expression than ML264
CN(C(=O)COC(=O)/C=C/c1cccc([N+](=O)[O-])c1)C1CCS(=O)(=O)C1 (stereo not shown) [CID 5951923],,effect on KLF5 protein levels (KLF5 protein): lesser effects on KLF5 expression than ML264
"CN(C(=O)CNC(=O)/C=C/c1cccc(Cl)c1)C1CCS(=O)(=O)CC1 [Compound 1, (E)-3-(3-chlorophenyl)-N-(2-((1,1-dioxidotetrahydro-2H-thiopyran-4-yl)(methyl)amino)-2-oxoethyl)acrylamide]",,"maximal effect on DLD-1 viability (DLD-1 cell line): > 90%; IC50 (DLD-1 cell line; Homo sapiens, DLD1 (colon), viability): 0.029 µM; EC50 (DLD-1 cell line; Homo sapiens): 0.022 µM; effect on cell type (HT29 (colon); HT29, submicromolar doses): significant effects at submicromolar doses; IC50 (HT29 (colon); Homo sapiens, HT-29, HT29 (colon)): 0.13 µM; IC50 (SW-620 (colon); Homo sapiens, SW-620 (colon)): 0.43 µM; effect on cell type (SW-620 (colon); SW620, submicromolar doses): significant effects at submicromolar doses; effect on cell type (HCT-116 (colon); HCT116, submicromolar doses): significant effects at submicromolar doses; IC50 (HCT-116 (colon); Homo sapiens, HCT-116 (colon)): 0.56 µM; sensitivity to cytotoxicity [1]: ML264-insensitive; sensitivity to cytotoxicity [2]: ML264-insensitive; sensitivity to cytotoxicity [3]: ML264-insensitive; off-target activity vs. 47 kinases (47 kinases): inactive; inhibition at 10 μM vs. 67 protein targets [4]: < 50%; effect on KLF5 protein levels (KLF5 protein; listed as ML264): significantly reduces KLF5 protein levels; also recorded: lowers KLF5 protein levels; solubility ([5]; PBS, read-out: Solubility in PBS): 18.7 µM; solubility ([5]; assay buffer, read-out: Solubility in assay buffer): 35 µM; half-life (Stability in PBS): > 48 h; Michael acceptor [6]: Michael acceptor: No"
C[C@@H](NC(=O)/C=C/c1cccc(Cl)c1)C(=O)N(C)C1CCS(=O)(=O)CC1 [Compound 24],> 100,
CN(C(=O)CNC(=O)/C=C/c1cccc(S(=O)(=O)N(C)C)c1)C1CCS(=O)(=O)C1 (stereo not shown) [Compound 25],> 100,
O=C(/C=C/c1cccc(Cl)c1)NCC(=O)NC1CCS(=O)(=O)CC1 [Compound 26],> 100,
C[C@@H](NC(=O)/C=C/c1cccc(Cl)c1)C(=O)NC1CCS(=O)(=O)C1 (stereo partly shown) [Compound 27],> 100,
O=C(/C=C/c1cccc(Cl)c1)NCCC(=O)NC1CCS(=O)(=O)C1 (stereo not shown) [Compound 28],> 100,
CN(C(=O)CCNC(=O)/C=C/c1cccc(Cl)c1)C1CCS(=O)(=O)C1 (stereo not shown) [Compound 29],> 100,
C[C@@H](NC(=O)/C=C/c1cccc(Cl)c1)C(=O)N(C)C1CCS(=O)(=O)C1 (stereo partly shown) [Compound 30],> 100,
C[C@@H](NC(=O)/C=C/c1cccc(Cl)c1)C(=O)NC1CCS(=O)(=O)CC1 [Compound 31],> 100,
CN(C(=O)CNC(=O)c1cccc2c1OCCO2)C1CCS(=O)(=O)CC1 [Compound 32],> 100,
CN(C(=O)CNC(=O)c1cc2cc(Cl)ccc2[nH]1)C1CCS(=O)(=O)CC1 [Compound 33],> 100,
Cc1ccc(C2(C(=O)NCC(=O)N(C)C3CCS(=O)(=O)CC3)CC2)cc1 [Compound 34],> 100,
CN(C(=O)CNS(=O)(=O)c1cccc2ccccc12)C1CCS(=O)(=O)CC1 [Compound 35],> 100,
CN(C(=O)CNC(=O)Nc1ccc(Br)cc1Br)C1CCS(=O)(=O)CC1 [Compound 36],> 100,

Structure (SMILES),IC50 (human KLF5 promoter; [7]) [µM],further results
CN(C(=O)CNC(=O)c1cc2ccccc2o1)C1CCS(=O)(=O)CC1 [Compound 38],> 100,
CN(C(=O)CNC(=O)c1ccc2ccccc2n1)C1CCS(=O)(=O)CC1 [Compound 39],> 100,
CN(C(=O)CNC(=O)Cc1ccc2c(c1)OCO2)C1CCS(=O)(=O)CC1 [Compound 40],> 100,
CN(C(=O)CNC(=O)c1ccnn1-c1ccccc1)C1CCS(=O)(=O)CC1 [Compound 41],> 100,
CN(C(=O)CNC(=O)COCc1ccccc1)C1CCS(=O)(=O)CC1 [Compound 42],> 100,
COc1ccc(CC(=O)NCC(=O)N(C)C2CCS(=O)(=O)CC2)cc1 [Compound 43],> 100,
CN(C(=O)CNC(=O)C1CCc2ccccc2O1)C1CCS(=O)(=O)CC1 (stereo not shown) [Compound 44],> 100,
CN(C(=O)CNC(=O)c1coc2ccccc2c1=O)C1CCS(=O)(=O)CC1 [Compound 45],> 100,
CN(C(=O)CNC(=O)c1ccc2cc[nH]c2c1)C1CCS(=O)(=O)CC1 [Compound 46],> 100,
CN(C(=O)CNC(=O)c1ccc2ncsc2c1)C1CCS(=O)(=O)CC1 [Compound 47],> 100,
CN(C(=O)CNC(=O)c1cnc2ccc(Cl)cc2c1)C1CCS(=O)(=O)CC1 [Compound 48],> 100,
CN(C(=O)CNC(=O)c1ccsc1)C1CCS(=O)(=O)CC1 [Compound 49],> 100,
COc1cccc(CNC(=O)NCC(=O)N(C)C2CCS(=O)(=O)CC2)c1 [Compound 50],> 100,
O=C(/C=C/c1cccc(Cl)c1)NCC(=O)N(C1CC1)C1CCS(=O)(=O)CC1 [Compound 52],,IC50 (human KLF5 promoter; DlD-1 4.9 cell line): > 100 µM
"CN(C(=O)COC(=O)/C=C/c1cccc([N+](=O)[O-])c1)C1CCS(=O)(=O)C1 (stereo not shown) [Compound 53C, reference compound]",0.27,EC50 (DLD-1 cell line; Homo sapiens): 1.51 µM
O=C(/C=C/c1cccc(Cl)c1)NCC(=O)N(C1CC1)C1CCS(=O)(=O)CC1 [Compound 54],,IC50 (human KLF5 promoter; DlD-1 4.9 cell line): 7.8 µM; EC50 (DLD-1 cell line; Homo sapiens): 0.39 µM

# — patent publication US20150246908A1, “KLF5 MODULATORS” (The Scripps Research Institute, priority 2012, published 2015)
